# Experimental data from patent publication US6951881B2, “(1-substituted-indol-3-yl) alkylidenehydrazinecarboximidamide derivatives as 5-hydroxytryptamine-6 ligands” (Wyeth, priority 2002, dated 2005).
# Target: T1, human cloned 5-HT6 receptors (Homo sapiens, UniProt P50406)
# T1 construct: expressed in transfected cells; host or cells: HeLa cells
# Format: binding
# Settings: not given
# T1 sequence (P50406 whole entry): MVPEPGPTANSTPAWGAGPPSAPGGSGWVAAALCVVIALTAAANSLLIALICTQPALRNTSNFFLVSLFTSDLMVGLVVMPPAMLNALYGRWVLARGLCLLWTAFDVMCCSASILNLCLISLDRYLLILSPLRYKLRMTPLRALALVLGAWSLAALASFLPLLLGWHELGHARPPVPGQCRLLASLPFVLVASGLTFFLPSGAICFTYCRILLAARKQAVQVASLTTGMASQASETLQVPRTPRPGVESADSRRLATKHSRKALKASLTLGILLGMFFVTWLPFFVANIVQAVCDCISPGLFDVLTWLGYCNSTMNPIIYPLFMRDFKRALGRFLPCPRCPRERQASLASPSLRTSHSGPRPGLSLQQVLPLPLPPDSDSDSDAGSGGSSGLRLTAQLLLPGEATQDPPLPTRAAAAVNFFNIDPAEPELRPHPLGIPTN
row,Compound,inhibition at 0.1 µM
1,"CN(N=C1CCc2[nH]c3ccc(Cl)cc3c21)C1=NCCN1 [Example 184, 7-Chloro-3,4-dihydrocyclopenta[b]indol-1(2H)-one 4,5-dihydro-1H-imidazol-2-yl-(methyl)hydrazone]",19.8%

# Same assay, conditions: test compound dose 100 nM; displacement of [3H]-LSD
row,Compound,% Inhibition
1,"N-benzyl-2-(6-chloro-1,2,3,9-tetrahydro-4H-carbazol-4-ylidene)hydrazinecarboximidamide [Example 182]",47.3%

# Same assay, conditions: test compound dose 100 nM; displacement of [3H]-LSD; read-out: % Inhibition
row,Compound,inhibition at 0.1 µM
1,"CC1(C)CC(=NNC(=N)N)c2c([nH]c3ccc(F)cc23)C1 [Example 173, 2-(6-fluoro-2,2-dimethyl-1,2,3,9-tetrahydro-4H-carbazol-4-ylidene)hydrazinecarboximidamide]",26.7%
2,"Cc1ccc2[nH]c3c(c2c1)C(=NN(C)C1=NCCN1)CC(C)(C)C3 [Example 174, 2,2,6-trimethyl-1,2,3,9-tetrahydro-4H-carbazol-4-one 4,5-dihydro-1H-imidazol-2-yl(methyl)-hydrazone]",25.5%
3,"Cc1ccc2[nH]c3c(c2c1)C(=NN(C)C1=NCCN1)CC(c1ccccc1)C3 (stereo not drawn) [Example 175, 6-methyl-2-phenyl-1,2,3,9-tetrahydro-4H-carbazol-4-one 4,5-dihydro-1H-imidazol-2-yl(methyl)-hydrazone]",18.6%
4,"Cc1ccc2[nH]c3c(c2c1)C(=NN(C)C1=NCCN1)CCC3 [Example 176, 6-methyl-1,2,3,9-tetrahydro-4H-carbazol-4-one 4,5-dihydro-1H-imidazol-2-yl(methyl)hydrazone]",24.2%
5,"CC(C)c1ccc2[nH]c3c(c2c1)C(=NN(C)C1=NCCN1)CC(C)(C)C3 [Example 177, 6-isopropyl-2,2-dimethyl-1,2,3,9-tetrahydro-4H-carbazol-4-one 4,5-dihydro-1H-imidazol-2-yl(methyl)hydrazone]",22.9%
6,"CC(C)c1ccc2[nH]c3c(c2c1)C(=NN(C)C1=NCCN1)CC(c1ccccc1)C3 (stereo not drawn) [Example 178, 6-isopropyl-2-phenyl-1,2,3,9-tetrahydro-4H-carbazol-4-one 4,5-dihydro-1H-imidazol-2-yl-(methyl)hydrazone]",25.6%
7,"CC(C)c1ccc2[nH]c3c(c2c1)C(=NN(C)C1=NCCN1)CCC3 [Example 179, 6-isopropyl-1,2,3,9-tetrahydro-4H-carbazol-4-one 4,5-dihydro-1H-imidazol-2-yl(methyl)-hydrazone]",5.6%
8,"CN(N=C1CC(c2ccccc2)Cc2[nH]c3ccc(F)cc3c21)C1=NCCN1 (stereo not drawn) [Example 180, 6-fluoro-2-phenyl-1,2,3,9-tetrahydro-4H-carbazol-4-one 4,5-dihydro-1H-imidazol-2-yl(methyl)-hydrazone]",11.5%
9,"CCCCCNC(=N)NN=C1CCCc2[nH]c3ccc(Cl)cc3c21 [Example 181, 2-(6-chloro-1,2,3,9-tetrahydro-4H-carbazol-4-ylidene)-N-pentylhydrazinecarboximidamide]",47%
10,"N=C(NN=C1CCCc2[nH]c3ccc(Cl)cc3c21)NC1CCCC1 [Example 183, 2-(6-chloro-1,2,3,9-tetrahydro-4H-carbazol-4-ylidene)-N-cyclopentylhydrazinecarboximidamide]",55.3%
